Patent US8871753B2, “Macrocyclic compounds and their use as kinase inhibitors” (Incyte Corporation, priority 2008, dated 2014)
Counter-ions that a name gives are not always drawn. Like-named read-outs stand apart in the source and are kept apart here.

Legend:
Assay type in all cases: biochemical
[1] = target: T1, human JAK1 (a.a. 837-1142) (Homo sapiens, UniProt P23458); assay: In vitro JAK kinase assay (HTRF, phosphorylation of a biotinylated peptide), JAK1; settings: read-out: JAK1 IC50
T1 construct: human JAK1 (a.a. 837-1142); His tag (N); made in house; host or cells: insect cells (baculovirus)
T1 sequence (P23458 849-1154): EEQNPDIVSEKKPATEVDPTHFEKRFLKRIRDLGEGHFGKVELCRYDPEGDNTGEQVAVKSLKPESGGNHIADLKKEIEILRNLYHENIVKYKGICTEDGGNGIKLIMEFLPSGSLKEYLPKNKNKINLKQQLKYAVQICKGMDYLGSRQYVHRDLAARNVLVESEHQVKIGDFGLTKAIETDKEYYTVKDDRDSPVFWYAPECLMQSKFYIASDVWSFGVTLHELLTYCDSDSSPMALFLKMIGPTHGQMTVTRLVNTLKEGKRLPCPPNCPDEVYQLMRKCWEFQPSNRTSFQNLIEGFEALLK
Method in brief: (§1)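 Phosphorylation of a biotinylated peptide by the JAK kinase domain, detected by HTRF with Eu-Py20 and SA-APC. ATP was 90 μM for JAK1, 30 μM for JAK2 and 3 μM for JAK3. Reactions ran 1 h at room temperature and were stopped with EDTA, followed by 40 min antibody binding.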

[2] = target: T2, human JAK2 (a.a. 828-1132) (Homo sapiens, UniProt O60674); assay: In vitro JAK kinase assay (HTRF, phosphorylation of a biotinylated peptide), JAK2
T2 construct: JAK2 (a.a. 828-1132); His tag (N); made in house; host or cells: insect cells (baculovirus)
T2 sequence (O60674 828-1132): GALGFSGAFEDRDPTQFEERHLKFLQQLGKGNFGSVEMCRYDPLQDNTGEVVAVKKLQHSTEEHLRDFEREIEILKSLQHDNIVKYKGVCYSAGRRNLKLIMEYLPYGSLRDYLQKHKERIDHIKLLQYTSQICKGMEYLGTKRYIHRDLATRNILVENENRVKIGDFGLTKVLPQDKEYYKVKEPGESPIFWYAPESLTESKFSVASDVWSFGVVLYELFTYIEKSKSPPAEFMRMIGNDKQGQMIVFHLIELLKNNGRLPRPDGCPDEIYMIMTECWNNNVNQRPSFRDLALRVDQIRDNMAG
Method in brief: as §1

[3] = target: T3, human JAK3 (a.a. 781-1124) (Homo sapiens, UniProt P52333); assay: In vitro JAK kinase assay (HTRF, phosphorylation of a biotinylated peptide), JAK3
T3 construct: JAK3 (a.a. 781-1124); His tag (N); made in house; host or cells: insect cells (baculovirus)
T3 sequence (P52333 781-1124): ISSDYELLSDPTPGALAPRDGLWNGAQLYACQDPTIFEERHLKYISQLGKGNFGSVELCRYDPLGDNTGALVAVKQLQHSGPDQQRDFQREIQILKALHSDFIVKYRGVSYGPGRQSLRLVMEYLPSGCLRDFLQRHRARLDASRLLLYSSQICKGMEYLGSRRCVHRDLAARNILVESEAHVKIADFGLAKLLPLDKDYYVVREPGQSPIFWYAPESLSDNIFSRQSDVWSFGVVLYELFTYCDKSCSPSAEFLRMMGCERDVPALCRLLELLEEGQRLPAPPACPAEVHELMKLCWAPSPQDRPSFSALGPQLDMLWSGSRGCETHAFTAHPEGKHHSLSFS
Method in brief: as §1

[4] = target: TYK2 (Homo sapiens, UniProt P29597); assay: TYK2 kinase inhibition (Table A1)
Sequence of TYK2 (P29597 whole entry): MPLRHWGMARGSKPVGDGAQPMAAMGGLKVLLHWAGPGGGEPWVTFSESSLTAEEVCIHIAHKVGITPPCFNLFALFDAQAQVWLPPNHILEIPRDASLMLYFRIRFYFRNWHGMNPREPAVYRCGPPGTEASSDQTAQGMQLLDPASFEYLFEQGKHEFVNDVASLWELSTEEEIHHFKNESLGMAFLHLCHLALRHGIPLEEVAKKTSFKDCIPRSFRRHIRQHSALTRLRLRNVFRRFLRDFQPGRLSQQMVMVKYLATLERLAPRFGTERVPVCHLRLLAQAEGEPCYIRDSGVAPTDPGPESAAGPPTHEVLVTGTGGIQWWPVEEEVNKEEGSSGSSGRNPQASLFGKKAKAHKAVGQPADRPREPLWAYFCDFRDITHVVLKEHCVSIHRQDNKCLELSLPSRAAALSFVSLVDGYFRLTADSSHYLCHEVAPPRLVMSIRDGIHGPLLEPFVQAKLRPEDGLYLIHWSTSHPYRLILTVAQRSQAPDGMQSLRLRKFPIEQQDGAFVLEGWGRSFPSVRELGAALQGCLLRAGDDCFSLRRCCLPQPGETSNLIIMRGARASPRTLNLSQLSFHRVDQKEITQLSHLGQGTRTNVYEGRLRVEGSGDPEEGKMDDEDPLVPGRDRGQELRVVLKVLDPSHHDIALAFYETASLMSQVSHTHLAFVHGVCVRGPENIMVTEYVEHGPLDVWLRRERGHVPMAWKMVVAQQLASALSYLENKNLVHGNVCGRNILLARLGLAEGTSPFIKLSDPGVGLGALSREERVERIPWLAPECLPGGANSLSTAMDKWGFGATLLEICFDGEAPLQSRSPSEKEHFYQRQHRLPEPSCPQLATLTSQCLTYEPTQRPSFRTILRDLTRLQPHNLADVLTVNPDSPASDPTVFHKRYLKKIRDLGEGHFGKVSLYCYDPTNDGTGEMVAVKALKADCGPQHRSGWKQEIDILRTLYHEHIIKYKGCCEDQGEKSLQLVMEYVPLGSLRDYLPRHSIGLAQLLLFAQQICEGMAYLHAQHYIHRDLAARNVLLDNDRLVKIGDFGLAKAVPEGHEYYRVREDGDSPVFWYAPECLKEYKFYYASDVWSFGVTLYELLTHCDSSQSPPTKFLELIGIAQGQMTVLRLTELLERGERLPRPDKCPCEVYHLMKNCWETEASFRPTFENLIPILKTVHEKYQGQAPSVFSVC

## Cc1cc(C(=O)N2CC(CC(=O)Nc3ccc4cc3CCc3cncc(c3)Nc3ncc(Cl)c(n3)N4)C2)no1 [Example D143, N-[6-Chloro-2,4,8,18,22-pentaazatetracyclo[14.3.1.1(3,7).1(9,13)]docosa-1(20),3(22),4,6,9(21),10,12,16,18-nonaen-12-yl]-2-{1-[(5-methylisoxazol-3-yl)carbonyl]azetidin-3-yl}acetamide bis(trifluoroacetate)]
[1]; Table D1
  IC50: 26 nM
[2]; Table D1
  IC50: 132 nM
[3]; Table D1
  IC50: > 1000 nM
[4]; Table D1
  IC50: 304 nM

## Cn1cc(C(=O)N2CC(CC(=O)Nc3ccc4cc3CCc3cncc(c3)Nc3ncc(Cl)c(n3)N4)C2)cn1 [Example D142, N-[6-Chloro-2,4,8,18,22-pentaazatetracyclo[14.3.1.1(3,7).1(9,13)]docosa-1(20),3(22),4,6,9(21),10,12,16,18-nonaen-12-yl]-2-{1-[(1-methyl-1H-pyrazol-4-yl)carbonyl]azetidin-3-yl}acetamide bis(trifluoroacetate)]
[1]; Table D1
  IC50: 37 nM
[2]; Table D1
  IC50: 144 nM
[3]; Table D1
  IC50: > 1000 nM
[4]; Table D1
  IC50: 193 nM

## O=C(c1cccnc1)N1Cc2cccc(c2)Nc2ncc(Cl)c(n2)Nc2cccc1c2 [Example C27, 6-Chloro-14-(pyridin-3-ylcarbonyl)-2,4,8,14,22-pentaazatetracyclo[14.3.1.1(3,7).1(9,13)]docosa-1(20),3(22),4,6,9(21),10,12,16,18-nonaene]
[1]
  IC50: 43 nM
[2]
  IC50: 59 nM
[3]
  IC50: 1290 nM
[4]
  IC50: 501 nM

## O=C(Nc1cccc(F)c1)N1CCC(CCOc2ccc3cc2CCc2cncc(c2)Nc2ncc(Cl)c(n2)N3)CC1 [Example D169, 4-(2-{[6-Chloro-2,4,8,18,22-pentaazatetracyclo[14.3.1.1(3,7).1(9,13)]docosa-1(20),3(22),4,6,9(21),10,12,16,18-nonaen-12-yl]oxy}ethyl)-N-(3-fluorophenyl)piperidine-1-carboxamide bis(trifluoroacetate)]
[1]; Table D1
  IC50: 39 nM
[2]; Table D1
  IC50: 235 nM
[3]; Table D1
  IC50: > 400 nM
[4]; Table D1
  IC50: > 400 nM

## O=C(Nc1cccc(N2CCOCC2)n1)N1CCC(CCOc2ccc3cc2CCc2cncc(c2)Nc2ncc(Cl)c(n2)N3)CC1 [Example D176, 4-(2-{[6-Chloro-2,4,8,18,22-pentaazatetracyclo[14.3.1.1(3,7).1(9,13)]docosa-1(20),3(22),4,6,9(21),10,12,16,18-nonaen-12-yl]oxy}ethyl)-N-(6-morpholin-4-ylpyridin-2-yl)piperidine-1-carboxamide tris(trifluoroacetate)]
[1]; Table D1
  IC50: 124 nM
[2]; Table D1
  IC50: 208 nM
[3]; Table D1
  IC50: > 400 nM
[4]; Table D1
  IC50: > 400 nM

## O=C(CC1CN(c2ccccn2)C1)Nc1ccc2cc1CCc1cncc(c1)Nc1ncc(Cl)c(n1)N2 [Example D153, N-[6-Chloro-2,4,8,18,22-pentaazatetracyclo[14.3.1.1(3,7).1(9,13)]docosa-1(20),3(22),4,6,9(21),10,12,16,18-nonaen-12-yl]-2-(1-pyridin-2-ylazetidin-3-yl)acetamide tris(trifluoroacetate)]
[1]; Table D1
  IC50: 30 nM
[2]; Table D1
  IC50: 150 nM
[3]; Table D1
  IC50: > 400 nM
[4]; Table D1
  IC50: > 400 nM

## O=C(CC1CCN(c2nccs2)C1)Nc1ccc2cc1CCc1cncc(c1)Nc1ncc(Cl)c(n1)N2 (stereo not drawn) [Example D154, N-[6-Chloro-2,4,8,18,22-pentaazatetracyclo[14.3.1.1(3,7).1(9,13)]docosa-1(20),3(22),4,6,9(21),10,12,16,18-nonaen-12-yl]-2-[1-(1,3-thiazol-2-yl)pyrrolidin-3-yl]acetamide tris(trifluoroacetate)]
[1]; Table D1
  IC50: 7.8 nM
[2]; Table D1
  IC50: 59 nM
[3]; Table D1
  IC50: > 400 nM
[4]; Table D1
  IC50: 226 nM

## Cc1cc(C(=O)N2CCC(Nc3ccc4cc3CCc3cncc(c3)Nc3ncc(Cl)c(n3)N4)CC2)no1 [Example D160, 6-Chloro-N-{1-[(5-methylisoxazol-3-yl)carbonyl]piperidin-4-yl}-2,4,8,18,22-pentaazatetracyclo[14.3.1.1(3,7).1(9,13)]docosa-1(20),3(22),4,6,9(21),10,12,16,18-nonaen-12-amine tris(trifluoroacetate)]
[1]; Table D1
  IC50: 244 nM
[2]; Table D1
  IC50: 341 nM
[3]; Table D1
  IC50: > 400 nM
[4]; Table D1
  IC50: > 400 nM

## CN1c2cccc(c2)CCc2cncc(c2)Nc2nccc1n2 [Example D224, 8-Methyl-2,4,8,18,22-pentaazatetracyclo[14.3.1.1(3,7).1(9,13)]docosa-1(20),3(22),4,6,9(21),10,12,16,18-nonaene bis(trifluoroacetate)]
[1]; Table D1
  IC50: 300 nM
[2]; Table D1
  IC50: 126 nM
[3]; Table D1
  IC50: > 400 nM
[4]; Table D1
  IC50: > 400 nM

## N#Cc1ccc(NC(=O)N2CCC(CCOc3ccc4cc3CCc3cncc(c3)Nc3ncc(Cl)c(n3)N4)CC2)cc1 [Example D174, 4-(2-{[6-Chloro-2,4,8,18,22-pentaazatetracyclo[14.3.1.1(3,7).1(9,13)]docosa-1(20),3(22),4,6,9(21),10,12,16,18-nonaen-12-yl]oxy}ethyl)-N-(4-cyanophenyl)piperidine-1-carboxamide bis(trifluoroacetate)]
[1]; Table D1
  IC50: 160 nM
[2]; Table D1
  IC50: > 400 nM
[3]; Table D1
  IC50: > 400 nM
[4]; Table D1
  IC50: > 400 nM

## N#Cc1ccc(NC(=O)N2CCN(c3ccc4cc3CCc3cccc(c3)Nc3ncc(Cl)c(n3)N4)CC2)cc1 [Example D93, 4-[6-Chloro-2,4,8,22-tetraazatetracyclo[14.3.1.1(3,7).1(9,13)]docosa-1(20),3(22),4,6,9(21),10,12,16,18-nonaen-12-yl]-N-(4-cyanophenyl)piperazine-1-carboxamide bis(trifluoroacetate)]
[1]; Table D1
  IC50: 46 nM
[2]; Table D1
  IC50: 14 nM
[3]; Table D1
  IC50: 69 nM
[4]; Table D1
  IC50: 71 nM

## O=C(c1cnccn1)N1CCC(CCOc2ccc3cc2CCc2cncc(c2)Nc2ncc(Cl)c(n2)N3)CC1 [Example D177, 6-Chloro-12-{2-[1-(pyrazin-2-ylcarbonyl)piperidin-4-yl]ethoxy}-2,4,8,18,22-pentaazatetracyclo[14.3.1.1(3,7).1(9,13)]docosa-1(20),3(22),4,6,9(21),10,12,16,18-nonaene tris(trifluoroacetate)]
[1]; Table D1
  IC50: 150 nM
[2]; Table D1
  IC50: 265 nM
[3]; Table D1
  IC50: > 400 nM
[4]; Table D1
  IC50: > 400 nM

## Cc1cc(C(=O)N2CCC(CC(=O)Nc3ccc4cc3CCc3cccc(c3)Nc3ncc(C)c(n3)N4)CC2)no1 [Example C54, 2-{1-[(5-Methylisoxazol-3-yl)carbonyl]piperidin-4-yl}-N-[6-methyl-2,4,8,22-tetraazatetracyclo[14.3.1.1(3,7).1(9,13)]docosa-1(20),3(22),4,6,9(21),10,12,16,18-nonaen-12-yl]acetamide trifluoroacetate]
[1]
  IC50: 65 nM
[2]
  IC50: 199 nM
[3]
  IC50: > 200 nM
[4]
  IC50: 199 nM

## O=C(CC1CN(C(=O)c2cn[nH]c2)C1)Nc1ccc2cc1CCc1cncc(c1)Nc1ncc(Cl)c(n1)N2 [Example D149, N-[6-Chloro-2,4,8,18,22-pentaazatetracyclo[14.3.1.1(3,7).1(9,13)]docosa-1(20),3(22),4,6,9(21),10,12,16,18-nonaen-12-yl]-2-[1-(1H-pyrazol-4-ylcarbonyl)azetidin-3-yl]acetamide bis(trifluoroacetate)]
[1]; Table D1
  IC50: 18 nM
[2]; Table D1
  IC50: 94 nM
[3]; Table D1
  IC50: > 1000 nM
[4]; Table D1
  IC50: 170 nM

## CC(C)(C)NC(=O)N1CCN(c2ccc3cc2CCc2cccc(c2)Nc2ncc(Cl)c(n2)N3)CC1 [Example D84, N-(tert-Butyl)-4-[6-chloro-2,4,8,22-tetraazatetracyclo[14.3.1.1(3,7).1(9,13)]docosa-1(20),3(22),4,6,9(21),10,12,16,18-nonaen-12-yl]piperazine-1-carboxamide bis(trifluoroacetate)]
[1]; Table D1
  IC50: 21 nM
[2]; Table D1
  IC50: 7.3 nM
[3]; Table D1
  IC50: 37 nM
[4]; Table D1
  IC50: 45 nM

## O=C(COc1ccc2cc1CCc1cncc(c1)Nc1ncc(Cl)c(n1)N2)N1CCC(c2nc(-c3cccs3)no2)CC1 [Example D258, 6-Chloro-12-(2-oxo-2-{4-[3-(2-thienyl)-1,2,4-oxadiazol-5-yl]piperidin-1-yl}ethoxy)-2,4,8,18,22-pentaazatetracyclo[14.3.1.1(3,7).1(9,13)]docosa-1(20),3(22),4,6,9(21),10,12,16,18-nonaene bis(trifluoroacetate)]
[1]; Table D1
  IC50: 70 nM
[2]; Table D1
  IC50: 113 nM
[3]; Table D1
  IC50: > 400 nM
[4]; Table D1
  IC50: > 400 nM

## O=C(C[C@@H]1CCCNC1)Nc1ccc2cc1CCc1cccc(c1)Nc1ncc(Cl)c(n1)N2 [Example D192, N-[6-Chloro-2,4,8,22-tetraazatetracyclo[14.3.1.1(3,7).1(9,13)]docosa-1(20),3(22),4,6,9(21),10,12,16,18-nonaen-12-yl]-2-[(3S)-piperidin-3-yl]acetamidebis(trifluoroacetate)]
[1]; Table D1
  IC50: 4.7 nM
[2]; Table D1
  IC50: 9.8 nM
[3]; Table D1
  IC50: 104 nM
[4]; Table D1
  IC50: 13 nM

## CC1(C)Cc2cccc(NC(=O)N3CCC(CCOc4ccc5cc4CCc4cncc(c4)Nc4ncc(Cl)c(n4)N5)CC3)c2O1 [Example D175, 4-(2-{[6-Chloro-2,4,8,18,22-pentaazatetracyclo[14.3.1.1(3,7).1(9,13)]docosa-1(20),3(22),4,6,9(21),10,12,16,18-nonaen-12-yl]oxy}ethyl)-N-(2,2-dimethyl-2,3-dihydro-1-benzofuran-7-yl)piperidine-1-carboxamide bis(trifluoroacetate)]
[1]; Table D1
  IC50: 150 nM
[2]; Table D1
  IC50: > 400 nM
[3]; Table D1
  IC50: > 400 nM
[4]; Table D1
  IC50: > 400 nM
